Results taken from patent publication US20180110824A1, “Macrocyclic Modulators of the Ghrelin Receptor” (Ocera Therapeutics, Inc., priority 2016, published 2018).
Read-outs that look alike come from different tables or passages of the source.

Experiments:
[1] = molecular target: T1, human growth hormone secretagogue receptor (hGHS-R1a) (Homo sapiens, UniProt Q92847); experiment: Competitive radioligand binding assay (ghrelin receptor), [125I]-ghrelin displacement on GHS-R/HEK 293 membranes; details: read-out: Ki
T1 construct: purchased PerkinElmer BioSignal #RBHGHSM; host or cells: HEK-293, stably transfected
Method: The competitive binding assay at the human growth hormone secretagogue receptor (hGHS-R1a) was carried out analogously to assays described in the literature.
Multiscreen Harvest plates-GF/C (Millipore, #MAHFC1H60) • 4. […] Bottom seal (Millipore, #MATAH0P00) • 7. […] Binding Buffer: 25 mM Hepes (pH 7.4), 1 mM CaCl2, 5 mM MgCl2, 2.5 mM EDTA, 0.4% BSA
Competition experiments were performed in a 300 μl filtration assay format. • 1. 220 μL of membranes diluted in binding buffer • 2. 40 μL of compound diluted in binding buffer • 3.
Compounds were provided frozen on dry ice at a stock concentration of 10 mM diluted in 100% DMSO and stored at −80° C. until the day of testing. On the test day, compounds were allowed to thaw at rt O/N and then diluted in assay buffer according to the desired test concentrations. Under these conditions, the maximal final DMSO concentration in the assay was 0.1%.
Plates were sealed with TopSeal-A, vortexed gently and incubated at rt for 30 min. The reaction was arrested by filtering samples through Multiscreen Harvest plates (pre-soaked in 0.5% polyethyleneimine) using a Tomtec Harvester, washed 9 times with 500 μL of cold 50 mM Tris-HCl (pH 7.4, 4° C.), and then plates were air-dried in a fumehood 30 min. A bottom seal was applied to the plates prior to the addition of 25 μL of MicroScint-0 to each well. […] Results were expressed as counts per minute (cpm).
Data were analyzed by GraphPad Prism (GraphPad Software, San Diego, Calif.) using […] non-linear regression analysis.
where total and non-specific binding represent the cpm obtained in the absence or presence of 1 μM ghrelin, respectively.
• 1. Binding performed on membranes prepared from HEK293 expressing the transfected, cloned human ghrelin receptor (hGHS-R1a). • 2. […] Ghrelin (unlabeled, 1 μM) was used to determine non-specific binding. • 4.

[2] = molecular target: T2, human ghrelin receptor (hGHS-R1a) (Homo sapiens, UniProt Q92847); experiment: Aequorin functional assay (ghrelin receptor), CHO-K1 cells co-expressing Gα16 and aequorin; assay type: cell-based; details: Table 4; functional (agonist) activity; TFA salts unless otherwise noted; read-out: EC50
T2 construct: host or cells: CHO-K1 co-expressing Gα16 and mitochondrially targeted aequorin
Method: This cell line is typically constructed by transfection of the human ghrelin receptor into CHO-K1 cells co-expressing Gα16 and the mitochondrially targeted Aequorin (Ref #ES-WT-A5). • 1. […] Assay buffer: DMEM (Dulbecco's Modified Eagles Medium) containing 0.1% BSA (bovine serum albumin; pH 7.0). • 3. Coelenterazine (Molecular Probes, Leiden, The Netherlands). • Final test concentrations (N=8) for compounds of the invention: 10, 1, 0.3, 0.1, 0.03, 0.01, 0.003, 0.001 μM.
Stock solutions of compounds (10 mM in 100% DMSO) were provided frozen on dry ice and stored at −20° C. prior to use. […] Assay plates were then prepared by appropriate dilution in DMEM medium containing 0.1% BSA. Under these conditions, the maximal final DMSO concentration in the assay was <0.6%.
AequoScreen™ cells were collected from culture plates with Ca^2+ and Mg^2+-free phosphate buffered saline (PBS) supplemented with 5 mM EDTA, pelleted for 2 min at 1000×g re-suspended in DMEM—Ham's F12 containing 0.1% BSA at a density of 5×10^6 cells/mL, and incubated O/N at rt in the presence of 5 μM coelenterazine. After loading, cells were diluted with assay buffer to a concentration of 5×10^5 cells/mL.
For agonist testing, 50 μL of the cell suspension was mixed with 50 μL of the appropriate concentration of test compound or ghrelin (reference agonist) in 96-well plates (duplicate samples). Ghrelin (reference agonist) was tested at several concentrations concurrently with the test compounds in order to validate the experiment. The emission of light resulting from receptor activation in response to ghrelin or test compounds was recorded using the Hamamatsu FDSS 6000 reader (Hamamatsu Photonics K.K., Japan).
Results were expressed as Relative Light Units (RLU). […] EC50, Hill slope and % Emax values are reported.
• 1. Assay performed on CHO-K1 cells expressing the transfected, cloned human ghrelin receptor (hGHS-R1a) and Gα16. • 2. Suspended cells incubated O/N with coelenterazine. • 3. Stimulation of hGHS-R1a activates Gα16, causing […] Ca2+ release which ultimately leads to the oxidation of coelenterazine and the emission of a quantitative luminescent signal. • 4. Ghrelin was used as the positive control. • 5.

[3] = Table 3B, binding activity at the human ghrelin receptor
[4] = Table 4, TFA salts unless otherwise noted
[5] = Binding activity at the human ghrelin receptor, [125I]-ghrelin displacement

T2 sequence (Q92847 whole entry): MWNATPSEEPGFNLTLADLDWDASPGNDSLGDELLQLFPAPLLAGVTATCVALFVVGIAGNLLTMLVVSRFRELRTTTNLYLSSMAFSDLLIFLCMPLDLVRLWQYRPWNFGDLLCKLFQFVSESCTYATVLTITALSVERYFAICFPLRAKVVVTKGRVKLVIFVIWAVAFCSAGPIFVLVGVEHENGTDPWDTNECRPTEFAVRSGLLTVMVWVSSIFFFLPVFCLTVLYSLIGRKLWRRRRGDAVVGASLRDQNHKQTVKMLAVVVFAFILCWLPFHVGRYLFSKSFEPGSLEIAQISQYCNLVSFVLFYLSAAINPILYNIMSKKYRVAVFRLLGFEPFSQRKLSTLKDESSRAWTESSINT
T1 sequence (Q92847 whole entry): as above

Ki [1, 3]	SMILES	further results
10 to 100 nM	CCC(C)[C@@H]1NC[C@@H](C)Oc2ccccc2CCCNC(=O)[C@H](Cc2cccc(Cl)c2)NC(=O)C2(CCCC2)NC1=O (stereo partly shown) [368a]	Ki [1, 4]: 0.1 to 10 nM; EC50 [2]: > 1000 nM
–	CC(C)[C@@H]1NCCOc2ccccc2CCCNC(=O)[C@@H](Cc2ccccc2)NC(=O)CN(C)C1=O [Compound 3]	Ki [1, 5]: 100 to 1000 nM; Ki [1, 4]: 100 to 1000 nM; EC50 [2]: 100 to 1000 nM
–	CCC(C)C1NCCOc2ccccc2CCCNC(=O)C(Cc2ccccc2)NC(=O)C(C)NC1=O (stereo not shown) [compound 2]	Ki [1, 5]: 100 to 1000 nM; Ki [1, 4]: 100 to 1000 nM; EC50 [2]: 100 to 1000 nM
–	CCC[C@@H]1NCCOc2ccccc2CCCNC(=O)[C@@H](Cc2ccccc2)NC(=O)CN(CC)C1=O [compound 5]	Ki [1, 5]: 100 to 1000 nM; Ki [1, 4]: 100 to 1000 nM; EC50 [2]: 100 to 1000 nM
–	CCC(C)[C@@H]1NC[C@@H](C)Oc2ccccc2CCCNC(=O)[C@@H](Cc2ccccc2)NC(=O)[C@@H](C)N(C)C1=O (stereo partly shown) [compound 35]	Ki [1, 5]: 10 to 100 nM; Ki [1, 4]: 10 to 100 nM; EC50 [2]: 1 to 100 nM
–	CCC(C)[C@@H]1NC[C@@H](C)Oc2ccccc2CCCNC(=O)[C@@H](Cc2ccccc2)NC(=O)[C@@H](C)N(C)C1=O (stereo partly shown) [compound 36]	Ki [1, 5]: 10 to 100 nM; EC50 [2]: 100 to 1000 nM
10 to 100 nM	C[C@@H]1C(=O)N[C@H](Cc2ccc(F)cc2)C(=O)NCCCc2cc(F)ccc2OCCN[C@@H](C2CC2)C(=O)N1C [compound 355]	–
100 to 1000 nM	C[C@@H]1C(=O)N[C@H](Cc2ccc(F)cc2)C(=O)NCCCc2cc(C(F)(F)F)ccc2OCCN[C@@H](C2CC2)C(=O)N1C [compound 356]	–
100 to 1000 nM	C[C@@H]1C(=O)N[C@H](Cc2ccc(F)cc2)C(=O)NCCCc2ccc(NS(C)(=O)=O)cc2OCCN[C@@H](C2CC2)C(=O)N1C [compound 357]	–
100 to 1000 nM	CC[C@H](C)[C@@H]1NCCOc2ccccc2C(C)(C)CCNC(=O)[C@H](Cc2cccc(Cl)c2)NC(=O)C2(CCCC2)NC1=O [compound 359]	–
100 to 1000 nM	CC[C@H](C)[C@@H]1NCCOCC=CCCNC(=O)[C@H](Cc2cccc(Cl)c2)NC(=O)C2(CCCC2)NC1=O [compound 360]	–
100 to 1000 nM	CCC(C)C1NCCCc2ccccc2C=CCCNC(=O)C(Cc2cccc(Cl)c2)NC(=O)C2(CCCC2)NC1=O (stereo not shown) [compound 361]	–
100 to 1000 nM	CC[C@H](C)[C@@H]1NCc2ccccc2CCCCCNC(=O)[C@H](Cc2cccc(Cl)c2)NC(=O)C2(CCCC2)NC1=O [compound 362]	–
100 to 1000 nM	CC[C@H](C)[C@@H]1NCCCCCCNC(=O)[C@H](Cc2cccc(Cl)c2)NC(=O)C2(CCCC2)NC1=O [compound 365]	–
100 to 1000 nM	CC[C@H](C)[C@@H]1NCCCCCCCNC(=O)[C@H](Cc2cccc(Cl)c2)NC(=O)C2(CCCC2)NC1=O [compound 366]	–
100 to 1000 nM	CCC(C)C1NCCOCCCCCNC(=O)C(Cc2cccc(Cl)c2)NC(=O)C2(CCCC2)NC1=O (stereo not shown) [compound 370]	–
10 to 100 nM	CC[C@H](C)[C@@H]1NCCCc2ccccc2CCCCNC(=O)[C@H](Cc2cccc(Cl)c2)NC(=O)C2(CCCC2)NC1=O [compound 371]	–
10 to 100 nM	C[C@@H]1C(=O)N[C@H](Cc2ccc(F)cc2)C(=O)NCCCc2cc(Cl)ccc2OCCN[C@@H](C2CC2)C(=O)N1C [compound 373]	–
100 to 1000 nM	CC1CCNC(=O)[C@@H](Cc2ccc(F)cc2)NC(=O)[C@@H](C)N(C)C(=O)[C@H](C2CC2)NCCOc2ccccc21 (stereo partly shown) [compound 375]	–
100 to 1000 nM	CC1CNC(=O)[C@@H](Cc2ccc(F)cc2)NC(=O)[C@@H](C)N(C)C(=O)[C@H](C2CC2)NCCOc2ccccc2C1 (stereo partly shown) [compound 376]	–
100 to 1000 nM	C[C@@H]1C(=O)N[C@H](Cc2ccc(F)cc2)C(=O)NCCC(C)(C)c2ccccc2OCCN[C@@H](C2CC2)C(=O)N1C [compound 378]	–

Ki [1, 3]	SMILES	further results
10 to 100 nM	CC1C(=O)NC(Cc2ccc(F)cc2)C(=O)NCC2CC2c2ccccc2OCCNC(C2CC2)C(=O)N1C (stereo not shown) [compound 379]	–
100 to 1000 nM	CC[C@H](C)[C@@H]1NCCOc2ccccc2/C=C\CNC(=O)[C@H](Cc2cccc(Cl)c2)NC(=O)C2(CCCC2)NC1=O [compound 380]	–
10 to 100 nM	CC[C@H](C)[C@@H]1NCCOc2ccccc2C#CCNC(=O)[C@H](Cc2cccc(Cl)c2)NC(=O)C2(CCCC2)NC1=O [compound 381]	–
100 to 1000 nM	CC[C@H](C)[C@@H]1NCCOc2cc(F)ccc2CCCNC(=O)[C@H](Cc2cccc(Cl)c2)NC(=O)C2(CCCC2)NC1=O [compound 383]	–
100 to 1000 nM	CC[C@H](C)[C@@H]1NCCOc2ccc(Cl)cc2CCCNC(=O)[C@H](Cc2cccc(Cl)c2)NC(=O)C2(CCCC2)NC1=O [compound 384]	–
100 to 1000 nM	CC[C@H](C)[C@@H]1NCCOc2cccnc2CCCNC(=O)[C@H](Cc2cccc(Cl)c2)NC(=O)C2(CCCC2)NC1=O [compound 385]	–
100 to 1000 nM	CC[C@H](C)[C@@H]1NCCOc2ccccc2C(C)CCNC(=O)[C@H](Cc2cccc(Cl)c2)NC(=O)C2(CCCC2)NC1=O (stereo partly shown) [compound 386]	–
100 to 1000 nM	CC[C@H](C)[C@@H]1NCCOc2ccccc2[C@@H]2C[C@@H]2CNC(=O)[C@H](Cc2cccc(Cl)c2)NC(=O)C2(CCCC2)NC1=O [compound 387]	–
100 to 1000 nM	CC[C@H](C)[C@@H]1NCCCNCCNC(=O)[C@H](Cc2cccc(Cl)c2)NC(=O)C2(CCCC2)NC1=O [compound 390]	–
0.1 to 10 nM	C[C@@H]1C(=O)N[C@H](Cc2cc(F)c(F)c(F)c2)C(=O)NCCCc2ccccc2OCCN[C@@H](C2CC2)C(=O)N1C [compound 391]	–
10 to 100 nM	CC[C@H](C)[C@@H]1NCCOc2ccccc2CC(C)CNC(=O)[C@H](Cc2cccc(Cl)c2)NC(=O)C2(CCCC2)NC1=O (stereo partly shown) [compound 392]	–
100 to 1000 nM	CC[C@H](C)[C@@H]1NCCOCCOCCNC(=O)[C@H](Cc2cccc(Cl)c2)NC(=O)C2(CCCC2)NC1=O [compound 393]	–
–	C[C@@H]1C(=O)N[C@H](Cc2cccc(Cl)c2)C(=O)NC/C=C/c2ccccc2OCCNC2(CCCC2)C(=O)N1C [compound 396]	Ki ([1]; Table 3C): 10 to 100 nM
–	C[C@H]1C(=O)N[C@H](Cc2cccc(Cl)c2)C(=O)NC/C=C/c2ccccc2OCCNC2(CCCC2)C(=O)N1C [compound 397]	Ki ([1]; Table 3C): 100 to 1000 nM
100 to 1000 nM	C[C@@H]1C(=O)N[C@H](Cc2ccc(F)cc2)C(=O)NCCCCCOCCN[C@@H](C2CC2)C(=O)N1C [compound 398]	–
10 to 100 nM	C[C@@H]1C(=O)N[C@H](Cc2ccc(F)cc2)C(=O)NC/C=C\c2ccccc2OCCN[C@@H](C2CC2)C(=O)N1C [compound 400]	–
–	CC(C)C[C@@H]1NC[C@@H](C)Oc2ccccc2CCCNC(=O)[C@H](Cc2cccc(Cl)c2)NC(=O)C2(CCCC2)NC1=O [compound 438]	Ki ([1]; Table 3D): 1000 to 10000 nM
–	CC[C@H](C)[C@@H]1NCCOc2ccccc2CCCNC(=O)[C@@H](Cc2ccc(F)cc2)NC(=O)[C@@H](COCc2ccccc2)N(C)C1=O [compound 440]	Ki ([1]; Table 3D): 100 to 1000 nM
–	CCCC1NCCOc2ccccc2CCCNC(=O)C(C(C)c2ccccc2)NC(=O)CN(C)C1=O (stereo not shown) [compound 448]	Ki ([1]; Table 3D): 1000 to 10000 nM
–	CC[C@H](C)[C@@H]1NCCOc2ncccc2CCCNC(=O)[C@H](Cc2cccc(Cl)c2)NC(=O)C2(CCCC2)NC1=O [compound 449]	Ki ([1]; Table 3D): 1000 to 10000 nM
